The test system of assay [1] is HRECs. The experiment in a line: VEGF-induced actin stress fibers in HRECs, rhodamine phalloidin staining. The assay is classed as cell-based, human. The note with it: 10 μg/mL 1 hour, then 20 ng/mL VEGF 1 hour. As for the experimental part:
Confluent HRECs were treated with 10 μg/mL Sac0601 or Sac0504 for 1 hour and then with 20 ng/mL VEGF for 1 hour. Subsequently, the cells were fixed at room temperature for 20 minutes with 4% paraformaldehyde and washed 3 times with PBS (pH 7.4). Then, the cells were permeabilized with 0.1% Triton X-100/PBS and reacted with 0.1 mg/mL rhodamine phalloidin (Molecular Probes) for 1 hour. Then, the cells were observed under a fluorescence microscope (Olympus). […] The analysis of actin cytoskeleton was conducted also for the compounds synthesized in Synthesis Example 5. Both Sac0904 and Sac0902 exerted effects in a concentration-dependent manner on the actin cytoskeleton which is closely related with vascular permeability (FIG. 7c).

Assay [2] deals with human retinal endothelial cells (HRECs). The experiment in a line: Serum depletion-induced apoptosis of HRECs, MTT assay and cell morphology. The assay is classed as cell-based. The conditions noted are these: for ability of inhibiting apoptosis (MTT assay): 48 hours after treatment; for ability of protecting retinal vascular endothelial cells from apoptosis induced by the removal of serum (MTT): serum-free medium, 0.1-10 μg/mL. As for the experimental part:
HRECs (3×10^4 cells/well) were seeded on a 24-well plate in M199 medium containing 20% fetal bovine serum. The next day, the cells were transferred to a medium containing […] Sac0601 (FIG. 4a) or 0.1-10 μg/mL Sac0504 (FIG. 4b). Cell viability was determined by MTT assay 48 hours later. FIGS. 5a-5c show the result of observing cell morphologies.
Human umbilical vein endothelial cells (HUVECs) and human retinal endothelial cells (HRECs) purchased from Cell Systems (USA) were seeded on a 100-mm culture dish in M199 medium (Life Technologies, USA) containing 20% (w/v) fetal bovine serum (FBS, HyClone, Canada), 100 units/mL penicillin (Invitrogen, USA), 100 μg/mL streptomycin (invitrogen, USA), 3 ng/mL basic fibroblast growth factor (bFGF, Upstate Biotechnology, USA) and 5 units/mL heparin and cultured in a 5% CO2 incubator at 37° C.
Also, HRECs were treated with the compounds synthesized in Synthesis Example 5 and MIT assay was performed 48 hours later in the same manner as described above.
Also, the acid compound wherein the methyl ester formed by the introduction of the ester group was hydrolyzed was synthesized to provide improved water solubility and activity. MYT assay was performed for the compounds synthesized in Synthesis Example 6 in the same manner as described above 48 hours after treatment.
Their ability of inhibiting apoptosis was confirmed again for HRECs. HRECs (3×10^4 cells/well) were seeded on a 24-well plate in M199 medium (1 mL) containing 20% fetal bovine serum, Next day, the cells were transferred to serum-free M199 medium containing 0.1-10 μg/ml. Sac060.1 (FIG. 4a) or 0.1-10 μg; mL Sac0504 (FIG. 4b). Cell viability was determined by MTF assay in the same manner as in Test Example 1.
Their ability of inhibiting apoptosis was confirmed again for HRECs.
A general note: Formazan colour is commonly taken as a measure of viable cells.

Assay [3] relates to diabetic mouse (DM) model. The experiment in a line: Retinal vascular permeability in diabetic mouse (DM) model, FITC-dextran. The assay is classed as in vivo, C57/BL6 mouse. The conditions noted are these: streptozotocin diabetic mouse, 10 μg into the vitreous body, 24 hours. As to the method: 10 μg of Sac0601 or 10 μg of Sac0504 was injected into the vitreous body of one eye of a diabetic mouse. 24 hours after the injection, 100 μL of FITC-dextran (30 mg/mL in filtered […]) was injected into the left ventricle. Then, the retina was observed under an optical microscope (FIG. 11a) and the fluorescence intensity was quantified (FIG. 11b).
For in vivo analysis of the effect of the synthesized Rk1 derivatives on increased vascular permeability in diabetic retinopathy, a diabetic mouse (DM) model was made by injecting streptozotocin to C57/BL6 mouse. Sac 0601 or Sac 0504 (10 μg) was injected into the vitreous body of the mouse. 24 hours later, 40-kDa FITC-dextran (30 mg/mL in PBS, Sigma) was injected into the left ventricle. After waiting for about 2 minutes for circulation of the tracer, the eyes were taken out and fixed immediately in 4% PFA. Then, the retina was taken out and observed under an optical microscope.

The test system of assay [4] is HUVECs. The experiment in a line: VEGF-induced actin stress fibers in HUVECs, rhodamine phalloidin staining. The assay is classed as cell-based, human. The conditions noted are these: 10 μg/mL pretreatment 1 hour, 20 ng/mL VEGF. As for the experimental part:
Confluent HUVECs were pretreated with the compounds (10 μg/mL) for 60 minutes before treating with 20 ng/mL VEGF (1 hr). The cells were then stained with rhodamine phalloidin.
It is known that the change in the actin structure of the cytoskeleton is closely related with the permeability of vascular endothelial cells. Increased permeability of vascular endothelial cells leads to increased formation of actin stress fibers and decrease of cortical actin ring structures. Based on this, the ability of inhibiting vascular endothelial permeability of the synthesized Rk1 derivatives was screened. Confluent HUVECs were pretreated with the synthesized compounds (10 μg/mL) for 1 hour before treating with 20 ng/mL VEGF (Upstate Biotechnology). Subsequently, the cells were fixed with 4% paraformaldehyde for 20 minutes at room temperature and washed 3 times with PBS (pH 7.4). Then, the cells were permeabilized with 0.1% Triton X-100/PBS and reacted with 0.1 mg/mL rhodamine phalloidin (Molecular Probes) for 1 hour. Then, the cells were observed under a fluorescence microscope (Olympus).

Assay [5] deals with occludin. The experiment in a line: Occludin western blotting of HREC lysate. The assay is classed as cell-based, human. The note with it: HRECs, pretreatment 60 minutes, then 20 ng/mL VEGF 1 hour. As to the method: In FIG. 8b, confluent HRECs were pretreated with Sac0601 (10 μg/mL) for 60 minutes before treating with 20 ng/mL VEGF (1 hr). Then, cell lysate was subjected to western blotting using anti-occludin antibody.
(§1) Confluent HRECs were treated with 10 μg/mL Sac0601 (FIG. 8a, panel A) or Sac0504 (FIG. 8a, panel B) for 1 hour and then with 20 ng/mL. VEGF for 1 hour. Subsequently, the cells were fixed at room temperature for 20 minutes with 4% paraformaldehyde and permeabilized with 0:1% Triton X-100/PBS. Then, the cells were incubated in PBS blocking solution containing 5% normal goat serum and 0.05% Tween-20. The cells were then reacted with anti-occludin antibody (Zymed Laboratories Inc.). The result was visualized with fluorescein-conjugated anti-mouse antibody (Vector Lab.). Also, western blotting was conducted for the cell lysate. The cell lysate was fractionated with SDS-PAGE and then transferred to polyvinyl difluoride membrane. The blocked membrane was reacted with anti-occludin antibody (Zymed Laboratories Inc.) and the immune response band was visualized with the chemiluminescence reagent obtained from Amersham Biosciences, Inc.
On the technique in general: Immunoblotting shows a protein as a band on a membrane.

For assay [6], the system named is HRECs. Briefly: Permeability of HRECs on transwell filter, labelled sucrose. Format: cell-based, human. The note with it: 10 μg/mL 60 minutes, with or without 20 ng/mL VEGF. As for the experimental part: HRECs were seeded on a transwell filter. After reaching confluency, the cells were pretreated with Sac0601 (FIG. 10a) and Sac0504 (FIG. 10b) for 60 minutes before treating with 20 ng/ml. VEGF (1 hr). The permeability of HRECs was determined by measuring radiation of […] (1 μCi/μL) diffused below the transwell using a liquid scintillation counter.
The effect of Sac0601 and Sac0504 on vascular permeability was analyzed. HRECs were seeded on a transwell filter (Corning Costar). After reaching confluency, the cells were cultured in M199 medium containing 1% FBS for 3 hours and treated with 10 μg/mL. Sac0601 (FIG. 10a) or Sac0504 (FIG. 10b) for 60 minutes, with or without pretreatment with 20 ng/mL VEGF for 60 minutes. Then, [^3H]sucrose (1 μCi [0.037 MBq.]/μL or 50 μL (0.8 μCi [0.0296 MBq])/mL, Amersham Pharmacia) were added. 30 minutes later, radiation diffused below the transwell was measured using a liquid scintillation counter (Wallac, PerkinElmer). Measurement was made at least four locations.

The subject of assay [7] is HRECs. The experiment in a line: Stability of tight junctions (TJs) at cell-cell contacts in VEGF-treated HRECs, anti-occludin immunostaining. Format: cell-based, human. The note with it: 10 μg/mL 1 hour, then 20 ng/mL VEGF 1 hour. As to the method: In FIG. 8a, confluent HRECs were pretreated with Sac0601 (panel A in FIG. 8a) or Sac0504 (panel B in FIG. 8a) for 60 minutes before treating with 20 ng/ml. VEGF (1 hr). The cells were then stained with occludin antibody.
as §1

For `CC(=O)OCC1OC(OC2CCC3(C)C(=CCC4C3CCC3(C)C(C(C)=CCCC(C)C)CCC43)C2)C=CC1OC(C)=O` (stereo not shown) [Sac0904], in assay [1], the “formation of actin stress fibers induced by VEGF” value (“formation … by VEGF” below) is “inhibited the formation of actin stress fibers” and the “formation of cortical actin ring structures” value is “increased the formation of cortical actin ring structures”. In addition, in assay [2], the “ability of inhibiting apoptosis (MTT assay)” value was “better ability of inhibiting apoptosis than Sac0601” and the “ability of protecting retinal vascular endothelial cells from apoptosis induced by the removal of serum (MTT)” value (shortened to “ability … (MTT)”) is “showed the ability of protecting the vascular endothelial cells from apoptosis induced by the removal of serum in a concentration-dependent manner”. The “retinal vascular permeability induced in the DM” value in assay [3] is “very effectively”. In assay [4], the “cortical actin ring structure” value is “increased the cortical actin ring structure” and the “formation … by VEGF” value is “inhibited the formation of actin stress fibers induced by VEGF”.

With `COC(=O)CCC/C=C(\C)[C@H]1CCC2C3CC=C4C[C@@H](OC5C=C[C@H](OC(C)=O)[C@@H](COC(C)=O)O5)CC[C@]4(C)C3CC[C@@]21C` (stereo partly shown) [Sac1004], in assay [1], the “formation … by VEGF” value was “inhibited the formation of actin stress fibers” and the “formation of cortical actin ring structures” value is recorded as “increased the formation of cortical actin ring structures”. The “occludin (western blotting)” value in assay [5] is recorded as “restores the activity of occludin decreased by VEGF”. Also, in assay [2], the “ability of inhibiting apoptosis (MTT assay)” value is “improved ability of inhibiting apoptosis over SAC-0904” and the “ability … (MTT)” value is reported as “showed the ability of protecting the vascular endothelial cells from apoptosis induced by the removal of serum in a concentration-dependent manner”. In addition, the “ability of protecting the vascular endothelial cells” value in assay [2] (incl. observation of cell morphologies) is “improved ability of protecting the vascular endothelial cells over SAC-0904”. Also, the “retinal vascular permeability induced in the DM” value in assay [3] is “very effectively”. Moreover, the “permeability of the vascular endothelial cells” value in assay [6] is given as “inhibiting permeability of the vascular endothelial cells”. Also, in assay [7], the “redistribution of TJs into the cytoplasm or destabilizing at the cell membrane induced by VEGF” value is reported as “could be inhibited”. Also, in assay [4], the “cortical actin ring structure” value is listed as “increased the cortical actin ring structure” and the “formation … by VEGF” value is “inhibited the formation of actin stress fibers induced by VEGF”.

As to `CC(=O)OCC1OC(OC2CCC3(C)C(=CCC4C3CCC3(C)C4CCC3C(C)(O)CCCC(C)C)C2)C=CC1OC(C)=O` (stereo not shown) [Sac0902], in assay [1], the “formation … by VEGF” value is reported as “inhibited the formation of actin stress fibers” and the “formation of cortical actin ring structures” value was “increased the formation of cortical actin ring structures”. In assay [2], the “ability of inhibiting apoptosis (MTT assay)” value is listed as “better ability of inhibiting apoptosis than Sac0601” and the “ability … (MTT)” value is recorded as “showed the ability of protecting the vascular endothelial cells from apoptosis induced by the removal of serum in a concentration-dependent manner”. In addition, the “retinal vascular permeability induced in the DM” value in assay [3] is “only limitedly”. In assay [4], the “cortical actin ring structure” value is recorded as “increased the cortical actin ring structure” and the “formation … by VEGF” value is “inhibited the formation of actin stress fibers induced by VEGF”.

These data come from patent US8889840B2, “Vascular leakage inhibitor” (Industry-Academic Cooperation Foundation, Yonsei University, priority 2009, dated 2014).
